These results are taken from publication PMC3135650 (Molecular pharmaceutics, 2009).

The target in data set [1] is T1, Bcrp (Rattus norvegicus, UniProt Q80W57).
T1 sequence (Q80W57 1-657): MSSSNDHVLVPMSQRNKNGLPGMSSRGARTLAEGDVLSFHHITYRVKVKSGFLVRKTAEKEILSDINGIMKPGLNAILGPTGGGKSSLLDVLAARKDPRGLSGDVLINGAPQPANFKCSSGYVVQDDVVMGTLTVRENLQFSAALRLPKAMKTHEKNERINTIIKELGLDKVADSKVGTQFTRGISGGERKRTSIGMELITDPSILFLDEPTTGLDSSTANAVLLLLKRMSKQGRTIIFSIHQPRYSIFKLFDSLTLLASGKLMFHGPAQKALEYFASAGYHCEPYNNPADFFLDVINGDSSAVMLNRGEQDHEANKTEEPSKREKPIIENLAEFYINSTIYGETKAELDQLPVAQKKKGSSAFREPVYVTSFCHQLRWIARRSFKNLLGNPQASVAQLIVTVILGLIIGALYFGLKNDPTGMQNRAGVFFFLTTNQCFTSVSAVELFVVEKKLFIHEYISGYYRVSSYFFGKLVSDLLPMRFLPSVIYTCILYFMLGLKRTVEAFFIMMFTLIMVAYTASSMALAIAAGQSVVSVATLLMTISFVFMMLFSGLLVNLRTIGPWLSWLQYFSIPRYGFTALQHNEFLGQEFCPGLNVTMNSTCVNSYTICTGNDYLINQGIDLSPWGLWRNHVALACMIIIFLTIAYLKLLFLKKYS
The experiment in a line: GF120918 inhibition of nitrofurantoin biliary excretion in SCRH.

The subject of another data set is P-gp. The settings on record: 2 µM GF120918, SCRH; cited from earlier work.
For data set [2], the system named is Bcrp. Particulars: cited from earlier work.
Data set [3] has as its target T1, Bcrp. In words: Biliary excretion. It counts as in vitro ADME. Particulars: 10 min; for Nitrofurantoin BEI, % of control (Ad-siNT) / Nitrofurantoin in vitro Clbiliary, % of control (Ad-siNT): 5 µM nitrofurantoin.
Data set [4] concerns sandwich-cultured rat hepatocytes (SCRH). Particulars: 10-min incubation; digoxin 1 µM, nitrofurantoin 5 µM.
The subject of the next data set is Caco-2 cells. The settings on record: 10 µM FTC; cited from earlier work.
Data set [5] has as its system BCRP. The settings on record: read-out: Ki or IC50 values for BCRP; cited from earlier work.
Where [6] appears, read: 2 µM GF120918, 5 µM nitrofurantoin, 10 min, day 4 SCRH.
Setting [7] is: 2 µM GF120918, 5 µM nitrofurantoin, 10 min, day 4 SCRH, data not shown.
Setting [8] is: day 4 Ad-si01Bcrp-infected SCRH.
[9] abbreviates: day 6 Ad-si01Bcrp-infected SCRH.

“Also recorded” adds a separate entry of the source.

Turning to `COc1cc2c(cc1OC)CN(CCc1ccc(NC(=O)c3cccc4c(=O)c5cccc(OC)c5[nH]c34)cc1)CC2` [GF120918, N-(4-[2-(1,2,3,4-tetrahydro-6,7-dimethoxy-2-isoquinolinyl)ethyl]-phenyl)-9,10-dihydro-5-methoxy-9-oxo-4-acridine carboxamide], on Bcrp [1] (setting [6]), the “Effect on cellular accumulation of nitrofurantoin” value is listed as “significantly increased” and the “Effect on nitrofurantoin accumulation in cells + BC” value was “did not affect”. For the same molecule, on Bcrp [1] (setting [7]), the “Nitrofurantoin BEI in presence of inhibitor, % of control” value is given as ~ 8 % of control and the “Nitrofurantoin in vitro Clbiliary in presence of inhibitor, % of control” value is ~ 8 % of control. Also, the “Inhibition of nitrofurantoin biliary excretion” value at Bcrp [1] (2 µM GF120918, SCRH) is given as “almost completely inhibited”. The “P-gp-mediated biliary excretion of digoxin, % of control” value with P-gp is ~ 25 % of control.

Turning to `O=C1CN(/N=C/c2ccc([N+](=O)[O-])o2)C(=O)N1` [nitrofurantoin], the “Nitrofurantoin biliary excretion in Abcg2-knockout mice” value with Bcrp [2] is “almost completely abolished”. For the same molecule, at Bcrp [3] (Ad-si01Bcrp-infected SCRH, 5 µM), the “Nitrofurantoin accumulation in cells + BC versus control (Ad-siNT)” value is on record as “similar”. Also, the “Cellular accumulation of nitrofurantoin versus control (Ad-siNT)” value at Bcrp [3] (Ad-si01Bcrp-infected day 4 and day 6 SCRH, 5 µM) is given as “increased markedly; also recorded: significantly increased”. At Bcrp [3] (setting [8]), the “Nitrofurantoin BEI, % of control (Ad-siNT)” value was ~ 24 % of control and the “Nitrofurantoin in vitro Clbiliary, % of control (Ad-siNT)” value is given as ~ 27 % of control. Further, on Bcrp [3] (setting [9]), the “Nitrofurantoin BEI, % of control (Ad-siNT)” value is reported as 11 % of control and the “Nitrofurantoin in vitro Clbiliary, % of control (Ad-siNT)” value was 14 % of control.

In the case of `C[C@H]1O[C@@H](O[C@H]2[C@@H](O)C[C@H](O[C@H]3[C@@H](O)C[C@H](O[C@H]4CC[C@@]5(C)[C@H](CC[C@@H]6[C@@H]5C[C@@H](O)[C@]5(C)[C@@H](C7=CC(=O)OC7)CC[C@]65O)C4)O[C@@H]3C)O[C@@H]2C)C[C@H](O)[C@@H]1O` [digoxin], the “Accumulation in cells + BC and cells, day 6 versus day 4 SCRH” value in data set [4] was “lower”. In addition, the “Effect of Bcrp knockdown on digoxin accumulation (cells + BC or cells), BEI or in vitro Clbiliary” value on Bcrp [3] (Ad-si01Bcrp-infected day 4 or day 6 SCRH, 1 µM digoxin) is “unaffected; also recorded: did not affect”.

By IC50 is commonly meant the concentration that gives 50% inhibition. In the case of `COc1ccc2c3c([nH]c2c1)[C@H](C=C(C)C)N1C(=O)[C@@H]2CCCN2C(=O)[C@@H]1C3` [FTC, fumitremorgin C], the “Effect on digoxin transport in Caco-2 cells” value in the data set on Caco-2 cells is “inhibited”. Also, the IC50 in the data set on BCRP [5] was 300 to 1300 nM.
